≈ marks a conversion by molar mass, not a printed value. Positions of bridges follow the written chain, without caps; N, C: chain ends. Non-standard residues stand in square brackets, D forms with d. Residues, ends and D or L forms follow the SMILES beside them. Dab = NCC[C@H](N)C(=O)O
Experiments:
[1] = test system: Beta-haemolytic streptococci (n = 20) clinical isolates from otitis externa cases in dogs; test: MIC/MBC and checkerboard, canine otitis externa isolates; format: cell-based, beta-haemolytic Streptococcus spp.; conditions: canine otitis externa; for MIC50 / MIC90: Streptococcus; for MIC50: read-out: MIC50, single drug; for MIC90: read-out: MIC90, single drug
From the text: (§1) Escherichia coli ATCC 25922, E. coli ATCC 11229, P. aeruginosa ATCC 27853, P. aeruginosa PA01, Pseudomonas putida ATCC 17428, P. mirabilis ATCC 43071, K. pneumoniae ATCC 13883, A. baumannii ATCC 19606, and A. baumannii ATCC 12457 were used for preliminary susceptibility testing and combination experiments. S. aureus ATCC 29213 and S. pneumoniae ATCC 49619 were used as internal quality controls. A variety of bacterial organisms from both human and canine infections were investigated in this study (n = 119 isolates in total). Twenty-eight clinical Acinetobacter spp. isolates were obtained from cases of human skin and soft tissue infections, including 18 Acinetobacter baumannii and 10 A. calcoaceticus, kindly provided by a person (Institute of Medical and Veterinary Science, South Australia). […] Ninety-one clinical isolates were obtained from cases of canine otitis externa, including seven methicillin-susceptible S. pseudintermedius (MSSP), 13 multidrug- and methicillin-resistant S. pseudintermedius (MRSP) ([Saputra et al., 2017]), 20 beta-haemolytic Streptococcus spp., 30 P. aeruginosa (10 of them resistant to gentamicin and 21 P. mirabilis isolates). These isolates were obtained from the bacterial collection of the national survey of antimicrobial resistance in animals conducted in Australia. Swab samples from dogs with signs of otitis externa were collected by veterinarians and submitted to government, private or university diagnostic laboratories throughout Australia. After routine bacterial identification and the removal of confidential information, the participating veterinary diagnostic laboratories submitted the bacteria and their clinical information to PC2 Laboratories, Australian Centre for Antimicrobial Resistance Ecology, School of Animal and Veterinary Sciences, University of Adelaide, Roseworthy Campus, Roseworthy, SA, Australia, for further study. Thus, animal ethics approval was not required in this study. These organisms were identified to species level using biochemical testing and MALDI-TOF mass spectrometry (Bruker, Preston, VIC, Australia).
(§2) The MIC for ampicillin or gentamicin against each isolate was determined for each test to serve as an internal quality control. The MICs of isolates were determined by visual reading and using an EnSpire Multimode Plate Reader 2300 atA600nm.
(§3) Briefly, 10 μl aliquots from each duplicate well from the MIC assays (starting from the MIC for each compound) were inoculated onto a sheep blood agar (SBA) plate and incubated at 37°C.
(§4) Briefly, antimicrobial stock solutions for robenidine and PMBN were prepared at a concentration of 12.8 mg/ml in DMSO. […] A 1 μl aliquot of the first compound from each combination was dispensed along the abscissa (from row A to G) of the 96-well microplate, while the second compound was dispensed along the ordinate (from column 12 to column 3) using an electronic multichannel pipette followed by 89 μl of LB broth. Each well of the plate was inoculated with an aliquot of 10 μl bacterial suspension at a concentration of 1-5 × 10^6 colony forming units (CFU) per ml. Subsequently, the plate was incubated at 37°C for 24 h. The fractional inhibitory concentration index (FICI) described the results of the combinations, and was calculated utilizing the following formula:
(§5) DRI = MIC of drug alone/MIC of drug in combination

S. pneumoniae ATCC 49619 = test: MIC broth microdilution, quality control strain; format: cell-based; conditions: Streptococcus pneumoniae, ATCC49619; S. pneumoniae ATCC 49619, quality control strain
Experimental: (§6) Luria Bertani (LB) broth (Oxoid, Australia) was applied for MIC testing in lieu of cation-adjusted Mueller–Hinton broth as robenidine has been previously shown to chelate calcium ions. Furthermore, a twofold serial dilution of robenidine was performed in 100% DMSO, with 1 μl dispensed to each well due to the hydrophobicity of the compound ([Abraham et al., 2016]). The MIC for ampicillin or gentamicin against each isolate was determined for each test to serve as an internal quality control. The MICs of isolates were determined by visual reading and using an EnSpire Multimode Plate Reader 2300 atA600nm.

S. aureus ATCC 29213 = test: MIC broth microdilution, quality control strain; format: cell-based; conditions: Staphylococcus aureus, ATCC29213; S. aureus ATCC 29213, quality control strain
Experimental: as §6

E. coli ATCC 25922 = test: microbe, parasite or virus in culture; conditions: for MIC: Escherichia coli, ATCC25922, read-out: MIC, single drug
Experimental: as §2, §4, §5

[2] = test system: S. pseudintermedius (n = 20) clinical isolates from otitis externa cases in dogs; test: MIC/MBC and checkerboard, canine otitis externa isolates; format: cell-based, Staphylococcus pseudintermedius; conditions: canine otitis externa; for MIC50 / MIC90: Staphylococcus pseudintermedius; for MIC50: read-out: MIC50, single drug; for MIC90: read-out: MIC90, single drug
From the text: as §1, §2, §3, §4, §5

[3] = test system: P. mirabilis (n = 21) clinical isolates from otitis externa cases in dogs; test: as above; format: cell-based, Proteus mirabilis; conditions: canine otitis externa; for MIC50 / MIC90: Proteus mirabilis; for MIC50: read-out: MIC50, single drug; for MIC90: read-out: MIC90, single drug
From the text: as §1, §2, §3, §4, §5

[4] = test system: P. aeruginosa (n = 30) clinical isolates from otitis externa cases in dogs; test: as above; format: cell-based, Pseudomonas aeruginosa; conditions: canine otitis externa; for MIC50 / MIC90: Pseudomonas aeruginosa; for MIC50: read-out: MIC50, single drug; for MIC90: read-out: MIC90, single drug
From the text: as §1, §2, §3, §4, §5

P. aeruginosa ATCC 27853 = test: microbe, parasite or virus in culture; conditions: for MIC: Pseudomonas aeruginosa, ATCC27853, read-out: MIC, single drug
Experimental: as §2, §4, §5

[5] = test system: Gram-negative control strains; test: Checkerboard, summary over Gram-negative strains; format: cell-based; conditions: in combination with robenidine; for P. aeruginosa
Experimental: as §4, §5

A. baumannii ATCC 12457 = test: microbe, parasite or virus in culture
Experimental: as §2, §4, §5

P. putida ATCC 17428 = test: microbe, parasite or virus in culture
Experimental: as §2, §4, §5

P. mirabilis ATCC 43071 = test: microbe, parasite or virus in culture; conditions: ATCC 43071, 24 h
Experimental: as §2, §4, §5

K. pneumoniae ATCC 13883 = test: microbe, parasite or virus in culture
Experimental: as §2, §4, §5

A. baumannii ATCC 19606 = test: microbe, parasite or virus in culture
Experimental: as §2, §4, §5

[6] = test system: A. calcoaceticus (human clinical isolate); test: microbe, parasite or virus in culture
Experimental: as §2, §4, §5

E. coli ATCC 11229 = test: microbe, parasite or virus in culture
Experimental: as §2, §4, §5

[7] = test system: all the cell lines tested (HaCaT, HEK 293, MDCK); test: cells; conditions: 24 h
Experimental: Cells were maintained in Dulbecco’s modified Eagle’s medium (DMEM) with 10% fetal bovine serum (FBS) and 1% PenStrep (100 U/mL Penicillin and 100 μg/mL Streptomycin) at 37°C with 5% CO2. Cells were serially passaged at ∼80% confluence ∼ every 4 days. Assays were performed in duplicate in 96 well plates seeded with ∼25,000 cells per well. […] Briefly, the antimicrobials were prepared by performing a twofold serial dilution at 100× of tested concentration in DMSO. Subsequently, a 1 μl aliquot of each concentration was transferred to a sterile 96-well plate containing fresh DMEM with either 10% FBS. After mixing four times, the media aliquots with different concentrations of antimicrobial were transferred to each well of the 96-well plate seeded with cells, using wells containing 1–2% DMSO only as control. To determine the effect of FBS on the cytotoxicity of each compound, DMEM with 40% FBS containing different concentrations of antimicrobial was prepared as described above. After 24 h of exposure, WST-1 reagent (Cell Proliferation Assay reagent, Roche) at a concentration of 10% was added to each well. Absorbance at A450 nm on a Multiskan Ascent 354 Spectrophotometer (Labsystems) was measured after 1 h of incubation. The IC50 value was determined for each compound against each cell line via non-linear regression (three parameters) using GraphPad Prism v6 software.

| SMILES | MIC50 [1] | MIC90 [1] | MIC range, single drug [1] | MIC (S. aureus ATCC 29213) | MIC (E. coli ATCC 25922) | MIC50 [2] | MIC90 [2] | MIC range, single drug [2] | MIC50 [3] | MIC90 [3] | MIC50 [4] | MIC90 [4] | MIC range, single drug [4] | MIC (P. aeruginosa ATCC 27853) | also measured |
| --- | --- | --- | --- | --- | --- | --- | --- | --- | --- | --- | --- | --- | --- | --- | --- |
| CC1(C)S[C@@H]2[C@H](NC(=O)[C@H](N)c3ccccc3)C(=O)N2[C@H]1C(=O)O [Ampicillin, ampicillin] | 0.125 µg/mL | 0.25 µg/mL | 0.06 to 0.5 µg/mL | 1 µg/mL (≈ 2.86 µM) | 4 µg/mL | 0.125 µg/mL | 8 µg/mL | 0.03 to 32 µg/mL | – | – | – | – | – | – | MIC (S. pneumoniae ATCC 49619): 0.125 µg/mL (≈ 0.358 µM) |
| CN[C@@H]1[C@@H](O[C@H]2O[C@H](CO)[C@@H](N)[C@H](O)[C@H]2O)OC2C[C@@H](N)[C@@H](O[C@H]3[C@H](O)[C@@H](O)[C@H](N)C[C@@H]3N)OC2[C@@H]1O (stereo partly drawn) [Apramycin, apramycin] | 64 µg/mL | 128 µg/mL | 4 to 128 µg/mL | 4 µg/mL (≈ 7.41 µM) | 8 µg/mL | 8 µg/mL | 16 µg/mL | 1 to 16 µg/mL | 32 µg/mL | 64 µg/mL | 32 µg/mL | 64 µg/mL | 16 to 64 µg/mL | 16 µg/mL | MIC range, single drug [3]: 16 to 64 µg/mL |
| CNC(C)C1CCC(N)C(OC2C(N)CC(N)C(OC3OCC(C)(O)C(NC)C3O)C2O)O1 (stereo not drawn) [Gentamicin, gentamicin] | 8 µg/mL | 8 µg/mL | 8 to 16 µg/mL | 0.5 µg/mL (≈ 1.05 µM) | 0.5 µg/mL | 2 µg/mL | 2 µg/mL | 1 to 64 µg/mL | 8 µg/mL | 32 µg/mL | 32 µg/mL | 64 µg/mL | 0.25 to 64 µg/mL | 2 µg/mL | – |
| CC(C)C[C@@H]1NC(=O)[C@@H](Cc2ccccc2)NC(=O)[C@H](CCN)NC(=O)[C@@H](NC(=O)[C@H](CCN)NC(=O)[C@@H](N)[C@@H](C)O)CCNC(=O)[C@H]([C@@H](C)O)NC(=O)[C@H](CCN)NC(=O)[C@H](CCN)NC1=O [PMBN, polymyxin B nonapeptide] (H-T[Dab][Dab][Dab][dF]L[Dab][Dab]T; lactam 3-C; N-terminus assumed) | – | – | – | – | – | – | – | – | – | – | – | – | – | – | fold reduction of the MIC of PMBN [5]: 4- to 64 fold; MIC in combination PMBN:ROB (A. baumannii ATCC 12457; A. baumannii ATCC 12457, concentration of the labelled component): 1 µg/mL; MIC, single drug (A. baumannii ATCC 12457; ATCC 12457, 24 h): >32 µg/mL; MIC, single drug (P. putida ATCC 17428; ATCC 17428, 24 h): 4 µg/mL; MIC in combination PMBN:ROB (P. putida ATCC 17428; P. putida ATCC 17428, concentration of the labelled component): 1:1 μg/ml; MIC, single drug (P. mirabilis ATCC 43071): >32 µg/mL; MIC, single drug (P. aeruginosa ATCC 27853; ATCC 27853, 24 h): 2 µg/mL; MIC in combination PMBN:ROB (P. aeruginosa ATCC 27853; P. aeruginosa ATCC 27853, concentration of the labelled component): 0.75 µg/mL; MIC, single drug (K. pneumoniae ATCC 13883; ATCC 13883, 24 h): >32 µg/mL; MIC in combination PMBN:ROB (K. pneumoniae ATCC 13883; K. pneumoniae ATCC 13883, concentration of the labelled component): 0.5 µg/mL; MIC in combination PMBN:ROB (A. baumannii ATCC 19606; A. baumannii ATCC 19606, concentration of the labelled component): 1 µg/mL; MIC, single drug (A. baumannii ATCC 19606; ATCC 19606, 24 h): >32 µg/mL; MIC, single drug (E. coli ATCC 25922; ATCC 25922, 24 h): >32 µg/mL; MIC in combination PMBN:ROB (E. coli ATCC 25922; E. coli ATCC 25922, concentration of the labelled component): 6 µg/mL; MIC, single drug ([6]; 24 h): >32 µg/mL; MIC in combination PMBN:ROB ([6]; A. calcoaceticus human clinical isolate, concentration of the labelled component): 1.5 µg/mL; MIC, single drug (E. coli ATCC 11229; ATCC 11229, 24 h): >32 µg/mL; MIC in combination PMBN:ROB (E. coli ATCC 11229; E. coli ATCC 11229, concentration of the labelled component): 6 µg/mL; IC50 [7]: > 32 µg/mL |

From publication PMC6494957 (Frontiers in Microbiology, 2019)
